# pEC50: −log10 of the molar value.
# Tests used:
# [1] = test system: early erythroid cells (Eryth I); assay: MLTA, ErythI: concentration-response and QSP model fit; assay type: cell-based, human
# In short: (§1)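 Six-day flow cytometry counts, bead-normalized and expressed relative to the mean of six vehicle wells, underlie each value. Cells were primary human bone marrow CD34+ cells cultured in SFEM II with cytokines promoting multi-lineage differentiation and self-renewal.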
# [2] = test system: human bone marrow-derived CD34+ cells differentiated into multiple hematopoietic lineages; assay: MLTA, overall effects across hematopoietic lineages; assay type: cell-based; conditions: QSP model fit; EmaxT > 1.0 = cell-killing
# Procedure: (§2) A custom optimized cytokine cocktail was developed using commercially available cytokines (Peprotech, New Jersey) to facilitate simultaneous multi-lineage differentiation and self-renewal of freeze-thawed primary human bone marrow-derived CD34+ cells in SFEM II media (cells and media from StemCell Technologies, Vancouver). Cultures were carried out in ultra-low attachment 96-well plates (Corning, New York) with test article added on day 0 and cultured at 37°C, 85% relative humidity, and 5% CO2 for six days before interrogating drug impact via 17-parameter flow cytometry.
# (§3) The flow cytometry panel used to define hematopoietic subsets was composed of CD34-PECy7, CD90-PECY5, CD38-AF488, CD371-PE, CD45Ra-BV421, CD14-BV605, CD42b-AF647, CD10-PEDazzle594, CD235a-PerCPCy5.5 (BioLegend, California), CD15-BUV395, CD41a-APCH7, CD71-BV786 (BD Biosciences, California), and DAPI for dead cell exclusion (ThermoFisher, California). In short, Day 6 cells were harvested, FcR-blocked (FcR binding inhibitor, ThermoFisher), surface-stained, then analyzed in a buffer containing TruCount Control Beads using a BD LSR Fortessa SORP fitted with a high-throughput sampler (BD Biosciences, California). Data was analyzed in Diva 6.0.2 and exported to CSV where after all cell data was transformed to cell per mL then normalized on a per-donor basis to untreated control wells to determine drug impact.
# (§4) Donor material was collected and cultured as described above. The number of replicate donor samples per drug ranged from 2–7 and varied per drug (S1 Table). Drug treatment was added at time 0 and cells were maintained in culture for 6 days. Concentrations tested for each drug compound are contained in S1 Table. Concentrations were selected to span a range that is clinically useful. Following treatment, cell populations were measured using flow cytometry. We extracted cell counts from flow cytometry data, normalized to bead counts, and corrected for well volume.
# (§5) Each well was normalized to the average of six vehicle control wells. For drugs that were tested across multiple runs of the assay, vehicle-normalized donor data were pooled, and we used the average of these pooled data for further modeling. Normalized data used as model inputs are included in S1 Table.
# We implemented drug effects using an Emax model for the drug’s effect on each cell type. The 13 maximum effect parameters (EmaxT,C) are unitless and can vary between 0 and 2 and where a subscript, C, represents one of the previously described 13 cell types. We adapted a traditional Emax model using the equations below. We interpreted EmaxT values less than or equal to one as anti-proliferative, and EmaxT values greater than one as indicating a cell-killing mechanism in addition to anti-proliferation. The relationships for these effects are included in the model using the following equations. Eq 2 describes the drug anti-proliferative effect in the net proliferation rate for a given cell type. Eq 3 describes the cell-killing EmaxCK effect.
# [3] = test system: granulocyte progenitor (Gran-lin prog); assay: MLTA, GranP: concentration-response and QSP model fit; assay type: cell-based, human; conditions: Homo sapiens, 144 h
# In short: as §1
# [4] = test system: MK cells (MK-lin); assay: MLTA, MK: concentration-response and QSP model fit; assay type: cell-based, human; conditions: Homo sapiens, 144 h
# In short: (§6)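 Drug was added at time 0 to thawed human bone marrow CD34+ cells in SFEM II plus a cytokine cocktail. After 6 days at 37°C, subsets were counted by surface-marker flow with TruCount beads. Vehicle-normalized, donor-pooled data then fed an Emax model separating anti-proliferative from cell-killing effects.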
# [5] = test system: monocyte progenitors (monocyte prog); assay: MLTA, MonoP: concentration-response and QSP model fit; assay type: cell-based, human
# In short: as §1
# [6] = test system: total viable cells (totalViableCells); assay: MLTA, total live cells concentration-response; assay type: cell-based; conditions: Homo sapiens, 144 h, 6 days, normalized to vehicle control, read-out: total_live normalized cell count
# Procedure: as §2, §3, §4, §5
# [7] = test system: late erythroid cells (Eryth II); assay: MLTA, ErythII: concentration-response and QSP model fit; assay type: cell-based, human; conditions: Homo sapiens, 144 h
# In short: as §6
# [8] = test system: neutrophils (neutrophil-lin); assay: MLTA, Neut: concentration-response and QSP model fit; assay type: cell-based, human; conditions: Homo sapiens, Neutrophil, 144 h
# In short: as §6
# [9] = cell-killing component, max(0, EmaxT-1)
# [10] = QSP model fit of 6-day MLTA data
structure (smiles),measurement,setting,value
CC(=O)O[C@@]12CO[C@@H]1C[C@H](O)[C@@]1(C)C(=O)[C@H](O)C3=C(C)[C@@H](OC(=O)[C@H](O)[C@@H](NC(=O)OC(C)(C)C)c4ccccc4)C[C@@](O)([C@@H](OC(=O)c4ccccc4)[C@H]21)C3(C)C [docetaxel],pEC50,"[1]; Homo sapiens, 144 h, QSP model fit of 6-day MLTA data, read-out: EC50ErythI",8.09
same,activity at 0.0002 µM,"[1]; Homo sapiens, 144 h, dose 0.2 nM, 6 days, normalized to vehicle control, read-out: ErythI normalized cell count",112%
same,activity at 0.001 µM,"[1]; Homo sapiens, 144 h, dose 1 nM, 6 days, normalized to vehicle control, read-out: ErythI normalized cell count",110%
same,activity at 0.005 µM,"[1]; Homo sapiens, 144 h, dose 5 nM, 6 days, normalized to vehicle control, read-out: ErythI normalized cell count",5.32%
same,activity at 0.025 µM,"[1]; Homo sapiens, 144 h, dose 25 nM, 6 days, normalized to vehicle control, read-out: ErythI normalized cell count",0.559%
same,activity at 0.1 µM,"[1]; Homo sapiens, 144 h, dose 100 nM, 6 days, normalized to vehicle control, read-out: ErythI normalized cell count",0.401%
same,activity at 0.5 µM,"[1]; Homo sapiens, 144 h, dose 500 nM, 6 days, normalized to vehicle control, read-out: ErythI normalized cell count",0.687%
same,activity at 2.5 µM,"[1]; Homo sapiens, 144 h, dose 2500 nM, 6 days, normalized to vehicle control, read-out: ErythI normalized cell count",0.409%
same,Emax,"[1]; Homo sapiens, 144 h, parameter from QSP model fitting, read-out: Emax_drug_ErythroidI",173%
same,"EmaxCK,ErythI",[1]; [9],0.726 day⁻¹
same,EmaxT effects across cell types (overall statement),[2],> 1.0
same,activity at 0.0002 µM,"[3]; dose 0.2 nM, 6 days, normalized to vehicle control, read-out: GranPs normalized cell count",110%
same,activity at 0.001 µM,"[3]; dose 1 nM, 6 days, normalized to vehicle control, read-out: GranPs normalized cell count",110%
same,activity at 0.005 µM,"[3]; dose 5 nM, 6 days, normalized to vehicle control, read-out: GranPs normalized cell count",4.64%
same,activity at 0.025 µM,"[3]; dose 25 nM, 6 days, normalized to vehicle control, read-out: GranPs normalized cell count",0%
same,activity at 0.1 µM,"[3]; dose 100 nM, 6 days, normalized to vehicle control, read-out: GranPs normalized cell count",0.0204%
same,activity at 0.5 µM,"[3]; dose 500 nM, 6 days, normalized to vehicle control, read-out: GranPs normalized cell count",0.0147%
same,activity at 2.5 µM,"[3]; dose 2500 nM, 6 days, normalized to vehicle control, read-out: GranPs normalized cell count",0.0152%
same,Emax,"[3]; parameter from QSP model fitting, read-out: Emax_drug_GranP",0.04%
same,pEC50,[4]; [10],8.11
same,activity at 0.0002 µM,"[4]; dose 0.2 nM, 6 days, normalized to vehicle control, read-out: MK normalized cell count",94.7%
same,activity at 0.001 µM,"[4]; dose 1 nM, 6 days, normalized to vehicle control, read-out: MK normalized cell count",109%
same,activity at 0.005 µM,"[4]; dose 5 nM, 6 days, normalized to vehicle control, read-out: MK normalized cell count",14.4%
same,activity at 0.025 µM,"[4]; dose 25 nM, 6 days, normalized to vehicle control, read-out: MK normalized cell count",1.1%
same,activity at 0.1 µM,"[4]; dose 100 nM, 6 days, normalized to vehicle control, read-out: MK normalized cell count",0.719%
same,activity at 0.5 µM,"[4]; dose 500 nM, 6 days, normalized to vehicle control, read-out: MK normalized cell count",0.951%
same,activity at 2.5 µM,"[4]; dose 2500 nM, 6 days, normalized to vehicle control, read-out: MK normalized cell count",1.05%
same,Emax,"[4]; parameter from QSP model fitting, read-out: Emax_drug_MK",12.6%
same,pEC50,"[5]; Homo sapiens, Monocyte, 144 h, QSP model fit of 6-day MLTA data, read-out: EC50MonoP",8.10
same,activity at 0.0002 µM,"[5]; Homo sapiens, Monocyte, 144 h, dose 0.2 nM, 6 days, normalized to vehicle control, read-out: MonoPs normalized cell count",110%
same,activity at 0.001 µM,"[5]; Homo sapiens, Monocyte, 144 h, dose 1 nM, 6 days, normalized to vehicle control, read-out: MonoPs normalized cell count",107%
same,activity at 0.005 µM,"[5]; Homo sapiens, Monocyte, 144 h, dose 5 nM, 6 days, normalized to vehicle control, read-out: MonoPs normalized cell count",7.72%
same,activity at 0.025 µM,"[5]; Homo sapiens, Monocyte, 144 h, dose 25 nM, 6 days, normalized to vehicle control, read-out: MonoPs normalized cell count",0.204%
same,activity at 0.1 µM,"[5]; Homo sapiens, Monocyte, 144 h, dose 100 nM, 6 days, normalized to vehicle control, read-out: MonoPs normalized cell count",0.162%
same,activity at 0.5 µM,"[5]; Homo sapiens, Monocyte, 144 h, dose 500 nM, 6 days, normalized to vehicle control, read-out: MonoPs normalized cell count",0.302%
same,activity at 2.5 µM,"[5]; Homo sapiens, Monocyte, 144 h, dose 2500 nM, 6 days, normalized to vehicle control, read-out: MonoPs normalized cell count",0.319%
same,Emax,"[5]; Homo sapiens, Monocyte, 144 h, parameter from QSP model fitting, read-out: Emax_drug_MonoP",146%
same,"EmaxCK,MonoP",[5]; [9],0.459 day⁻¹
same,viability at 0.0002 µM,[6]; dose 0.2 nM,100%
same,viability at 0.001 µM,[6]; dose 1 nM,108%
same,viability at 0.005 µM,[6]; dose 5 nM,4.66%
same,viability at 0.025 µM,[6]; dose 25 nM,0.311%
same,viability at 0.1 µM,[6]; dose 100 nM,0.197%
same,viability at 0.5 µM,[6]; dose 500 nM,0.378%
same,viability at 2.5 µM,[6]; dose 2500 nM,0.283%
same,pEC50,"[7]; QSP model fit of 6-day MLTA data, read-out: EC50ErythII",8.20
same,activity at 0.0002 µM,"[7]; dose 0.2 nM, 6 days, normalized to vehicle control, read-out: ErythII normalized cell count",91.6%
same,activity at 0.001 µM,"[7]; dose 1 nM, 6 days, normalized to vehicle control, read-out: ErythII normalized cell count",105%
same,activity at 0.005 µM,"[7]; dose 5 nM, 6 days, normalized to vehicle control, read-out: ErythII normalized cell count",0.449%
same,activity at 0.025 µM,"[7]; dose 25 nM, 6 days, normalized to vehicle control, read-out: ErythII normalized cell count",0.0341%
same,activity at 0.1 µM,"[7]; dose 100 nM, 6 days, normalized to vehicle control, read-out: ErythII normalized cell count",0.0344%
same,activity at 0.5 µM,"[7]; dose 500 nM, 6 days, normalized to vehicle control, read-out: ErythII normalized cell count",0.0336%
same,activity at 2.5 µM,"[7]; dose 2500 nM, 6 days, normalized to vehicle control, read-out: ErythII normalized cell count",0.0256%
same,Emax,"[7]; parameter from QSP model fitting, read-out: Emax_drug_ErythroidII",1.59%
same,pEC50,[8]; [10],7.86
same,activity at 0.0002 µM,"[8]; dose 0.2 nM, 6 days, normalized to vehicle control, read-out: Neut normalized cell count",90.8%
same,activity at 0.001 µM,"[8]; dose 1 nM, 6 days, normalized to vehicle control, read-out: Neut normalized cell count",99.6%
same,activity at 0.005 µM,"[8]; dose 5 nM, 6 days, normalized to vehicle control, read-out: Neut normalized cell count",0.23%
same,activity at 0.025 µM,"[8]; dose 25 nM, 6 days, normalized to vehicle control, read-out: Neut normalized cell count",0.177%
same,activity at 0.1 µM,"[8]; dose 100 nM, 6 days, normalized to vehicle control, read-out: Neut normalized cell count",0.139%
same,activity at 0.5 µM,"[8]; dose 500 nM, 6 days, normalized to vehicle control, read-out: Neut normalized cell count",0.0727%
same,activity at 2.5 µM,"[8]; dose 2500 nM, 6 days, normalized to vehicle control, read-out: Neut normalized cell count",0%
same,Emax,"[8]; parameter from QSP model fitting, read-out: Emax_drug_Neut",23.2%
